# Test results taken from patent US9320760B2, “Compositions and methods of use of compounds to increase cancer patient survival time” (BioNumerik Pharmaceuticals, Inc., priority 2008, dated 2016).
# “Also recorded” adds a separate entry of the source.
# Molecular target: T1, Thioredoxin Reductase (Bos taurus, UniProt O62768)
# T1 sequence (O62768 1-499): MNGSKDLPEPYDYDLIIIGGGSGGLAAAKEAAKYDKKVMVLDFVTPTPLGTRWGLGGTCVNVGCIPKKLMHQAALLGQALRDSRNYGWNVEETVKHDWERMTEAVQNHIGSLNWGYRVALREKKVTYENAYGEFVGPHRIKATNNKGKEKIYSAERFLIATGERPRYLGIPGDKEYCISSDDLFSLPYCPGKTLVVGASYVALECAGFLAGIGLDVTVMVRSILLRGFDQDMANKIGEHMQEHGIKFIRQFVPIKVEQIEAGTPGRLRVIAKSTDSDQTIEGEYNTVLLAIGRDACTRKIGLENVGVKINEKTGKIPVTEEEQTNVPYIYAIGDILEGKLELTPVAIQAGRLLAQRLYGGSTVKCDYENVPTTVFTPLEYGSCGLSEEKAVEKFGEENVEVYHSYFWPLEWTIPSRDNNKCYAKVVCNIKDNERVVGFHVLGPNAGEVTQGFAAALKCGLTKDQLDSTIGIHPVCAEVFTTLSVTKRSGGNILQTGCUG
# Experiment: NADPH oxidation at 340 nm, thioredoxin reductase only
# Type: biochemical, bovine
# Procedure: Biochemistry 21:6628-6633 (1982).
# Data was then collected and plotted in Microsoft Excel. Error calculations, and graphical representations were performed in Microsoft Excel and Kaleidograph (ver. 3.5). Nonlinear data was graphically rendered using Kaleidograph. ANOVA and other statistical analyses were performed using SAS (ver. 8.2). Unless otherwise noted, significance level was set at 0.05, and error bars represent actual experimental standard deviation.
# It should be noted that for the purposes of FIG. 17 only, thioredoxin is labeled TXR and thioredoxin reductase is labeled TRR.
structure (smiles),measurement,setting,value
"O=S(=O)([O-])CCSSCCS(=O)(=O)[O-].[Na+].[Na+] [Tavocept™, disodium 2,2′-dithio-bis-ethane sulfonate]","NADPH Oxidation, Thioredoxin Reductase only","Disulfide 0.5 mM, minimum of triplicate assays",0.3 ± 0.01 nmol/min/mL
same,NADPH oxidation by TXR in the absence of TX,FIG. 17,indistinguishable from background
same,substrate for thioredoxin reductase alone,result in words,not thioredoxin reductase alone; also recorded: not for TXR
